From patent publication US4056520A (Research Corporation, priority 1975, dated 1977)

System: pituitary dwarf
Experiment: Metabolic studies in a pituitary dwarf (human growth hormone-like activity)
Format: in vivo
Settings: same pituitary dwarf
Experimental: There was also observed an increase in urinary calcium. […] This fraction in accordance with this invention evidencing clinical activity was administered by injection into the pituitary dwarf.
In the treatment of the pituitary dwarf mentioned hereinabove with the active A-II fraction, the treatment involved metabolic studies. The pituitary dwarf received 5 milligrams of the A-II fraction dissolved in water twice a day intramuscularly for five days. The active A-II fraction could just as well been given intravenously although one would predict that the effects would be more prolonged with intramuscular injection. It would appear unlikely that the A-II fraction, being a peptide, could efficiently be given orally since it would be digested in the gastrointestinal tract.

## human growth hormone: human growth hormone given to the same pituitary dwarf for comparison
  responses compared with the A-II fraction: qualitatively the same although the human growth hormone was more effective
